Here are results for 6 molecules from patent publication US7521474B2, “Biologically active lasonolide compounds” (priority 2003, dated 2009).

Values after ≈ are worked out from the molar mass of the structure shown. Where two headings read alike, the source gives them in different places.

Format in all cases: cell-based
Test [1] concerns Candida albicans (ATCC strain 44506). Kind of test: Agar (disk) diffusion assay. The note with it: 37° C., 24 hours. As for the experimental part: (§1) The antifungal activity of lasonolides C and F against Candida albicans (American Type Culture Collection strain 44506) was determined through the use of both agar diffusion and broth dilution assays.
Agar diffusion assays were performed using Sabouraud Dextrose agar plates seeded with the test microbe at 10^5/ml. Disks (6.35 mm, Schliecher and Schuell) were impregnated with 25 μg of test compound, allowed to dry and then placed on the agar surface. After incubation at 37° C. for 24 hours the zones of growth inhibition were determined. A control disk containing 100IU nystatin was run on the same plate as the test compound: the zone of inhibition was 28 mm.

Test [2] relates to PANC-1 human pancreatic cancer. Kind of test: Antiproliferative MTT assay, PANC-1. As for the experimental part: (§2) The lasonolide compounds were analyzed as to their effects on proliferation of A549 human lung adenocarcinoma, PANC-1 human pancreatic cancer and NCI-ADR-RES tumor cell lines. A549 human lung adenocarcinoma, PANC-1 pancreatic cancer cells and the NCI/ADR-RES (formerly MCF-7/ADR) human breast cell lines were obtained from the American Type Culture Collection (Rockville, Md.).
(§3) All cell lines are maintained in Roswell Park Memorial Institute (RPMI) medium 1640 supplemented with 100 U/mL penicillin 100 μg/ml streptomycin, 60 μg/ml L-glutamine, 18 mM HEPES, 0.05 mg/mL gentamycin and 10% fetal bovine serum (for the PANC-1 cell line the media is also supplemented with 100 μg/ml sodium pyruvate and 2.5 mg/ml glucose). Cell lines are cultured in plastic tissue culture flasks and kept in an incubator at 37° C. in humidified air containing 5% CO2.
(§4) To assess the antiproliferative effects of agents against the various cell lines, 200 μl cultures (96-well tissue culture plates, Nunc, Denmark) are first established at 3×10^4 cells/ml for adherent lines in tissue culture medium and incubated for 24 hr at 37° C. in 10% CO2 in air in order to allow cells to attach. A volume of 100 μl of medium is removed from each test well and 100 μl of medium containing serial, two-fold dilutions of the test agent is added to each well containing tumor cells. Medium without drug is also added to wells containing tumor cells which serve as no drug controls.
(§5) Positive drug controls are included to monitor drug sensitivity of each of the cell lines. These include varying dilutions of 5-fluorouracil, and doxorubicin. After 72-h exposure, tumor cells are enumerated using 3-[4,5-Dimethylthiazol-2-yl]-2,5-diphenyltetrazolium bromide (MTT) (M. C. Alley, et al., Cancer Res. 48:589, 1988) as follows:
(§6) A volume of 75 μl of warm growth media containing 5 mg/ml MTT is added to each well, cultures returned to the incubator, and left undisturbed for 3 hours. To spectrophotometrically quantitate formation of reduced formazan, plates are centrifuged (900×g, 5 minutes), culture fluids removed by aspiration, and 200 μl of acidified isopropanol (2 ml concentrated HCl/liter isopropanol) added per well. The absorbance of the resulting solutions is measured at 570 nm with a plate reader (Spectra II (Tecan Laboratories). The absorbance of tests wells is divided by the absorbance of drug-free wells, and the concentration of agent that results in 50% of the absorbance of untreated cultures (IC50) is determined by linear regression of logit-transformed data (D. J. Finney, Statistical Method in Biological Assay, third ed., pp.316-348, Charles Griffin Co., London, 1978). A linear relationship between tumor cell number and formazan production has been routinely observed over the range of cell densities observed in these experiments. The two standard drug controls (indicated above) are included in each assay to monitor the drug sensitivity of each of the cell lines and IC50 values are determined for each drug-cell combination.
(Tetrazolium assays rely on reduction of a dye to a coloured formazan, in cell work by metabolically active cells.)

The test system of test [3] is NCI/ADR-RES (formerly MCF-7/ADR) human breast cell line. Kind of test: Antiproliferative MTT assay, NCI/ADR-RES. To be noted: 72-h exposure. As for the experimental part:
as §2, §3, §4, §5, §6

Test [4] relates to Candida albicans (ATCC strain 44506). Briefly: Broth dilution assay (MIC). To be noted: 37° C.; for Minimum inhibitory concentration (MIC): 24 hours; for MIC: Candida albicans, ATCC44506, 24 h. As for the experimental part:
as §1
Broth dilution assays were performed as standard 96-well microtiter assays in a total volume of 50 μl with a seeding density of 10^3 cells/ml. The concentration range for test compound ranged from 50 to 3 μg/ml as two-fold dilutions. […] The Minimum inhibitory concentration (MIC) of Lasonolide F (IV) against Candida albicans in SDB broth is 50 μg/ml while in RPMI broth it is greater than 50 μg/ml.

Test [5] concerns A549 human lung adenocarcinoma. Briefly: Antiproliferative MTT assay, A549. As for the experimental part:
as §2, §3, §4, §5, §6

[6] abbreviates: 72-h exposure, value in parentheses.
Setting [7] is: Homo sapiens, PANC-1, 72-h exposure.
Where [8] appears, read: Homo sapiens, PANC-1, 72-h exposure, value in parentheses.
The mark [9] stands for this setting: Homo sapiens, NCI/ADR-RES, value in parentheses.
Where [10] appears, read: Homo sapiens, A549, 72-h exposure.
[11] abbreviates: Homo sapiens, A549, 72-h exposure, value in parentheses.

In test [1] (control disk containing 100IU, same plate), `C[C@@H]1[C@H](O)[C@@H](C)/C=C/C=C/CC/C=C/C=C/C=C/C=C/C(O[C@H]2O[C@H](C)[C@@H](O)[C@H](N)[C@@H]2O)CC2O[C@](O)(CC(O)C(O)CCC(O)CC(O)CC(O)CC(=O)O[C@H]1C)CC(O)C2C(=O)O` (some centres unmarked) [nystatin, reference compound] showed a zone of inhibition of 28 mm.
For orientation: IC50 means the point on the concentration scale where inhibition reaches its midpoint. With Lasonolide C [Lasonolide C (I)], the growth inhibitory zone in test [1] (tested at 25 μg/ml (disk 6.35 mm impregnated with 25 μg)) came out at 15 mm. Further, in test [2] (72-h exposure), the “PANC-1 IC50” value was 0.27 µg/mL. Besides, the 50% inhibitory concentration (IC50) was 0.38 µM in test [2] (setting [6]), 1.12 µM in test [3] (value in parentheses) and 0.13 µM in test [5] (setting [6]). For the same molecule, the “NCI ADR-RES IC50” value in test [3] amounted to 0.8 µg/mL. The “Minimum inhibitory concentration (MIC)” value in test [4] (RPMI broth) worked out at 12.5 µg/mL; in test [4] (SDB broth) it was 5 µg/mL. The “A549 IC50” value in test [5] (72-h exposure) is 0.095 µg/mL.
As for `CCOC(=O)C(O)C/C=C\C[C@@H]1O[C@@H]2/C=C/C/C=C/C(C)=C\[C@H]3O[C@@H](C/C=C/C=C/C(=O)O[C@H](C2)[C@@]1(C)CO)C[C@H](O)[C@H]3C` (some centres unmarked) [Lasonolide E (III), Lasonolide E], the IC50 in test [2] (setting [7]) is 0.35 µg/mL; in test [2] (setting [8]), 0.57 µM; in test [3] (Homo sapiens, NCI/ADR-RES), > 5 µg/mL; in test [3] (setting [9]), > 8 µM; in test [5] (setting [10]), 0.19 µg/mL; in test [5] (setting [11]), 0.31 µM.
As to `CC1=C/[C@H]2O[C@@H](C/C=C/C=C/C(=O)O[C@@H]3C[C@@H](/C=C/C\C=C\1)O[C@@H](C/C=C\CC(O)C(=O)O)[C@]3(C)CO)C[C@H](O)[C@H]2C` (some centres unmarked) [Lasonolide F (IV), Lasonolide F], the zone of inhibition at 25 µg/mL in test [1] (Candida albicans, ATCC44506, tested at 25 μg/ml (disk 6.35 mm impregnated with 25 μg), read-out: growth inhibitory zone) turned out to be 10 mm. Further, the MIC is > 50 µg/mL in test [4] (RPMI broth, read-out: Minimum inhibitory concentration (MIC)) and 50 µg/mL (≈ 85.2 µM) in test [4] (SDB broth, read-out: Minimum inhibitory concentration (MIC)).
Take `Nc1nc(=O)[nH]cc1F` [5-fluorocytosine, reference compound]: the MIC in test [4] (antifungal control, broth not stated, read-out: MIC) amounted to 0.62 µg/mL (≈ 4.8 µM).
In the case of `CC1=C/[C@H]2O[C@@H](C/C=C/C=C/C(=O)O[C@@H]3C[C@@H](/C=C/C\C=C\1)O[C@@H](C/C=C\CCO)[C@]3(C)CO)C[C@H](O)[C@H]2C` [Lasonolide D (II), Lasonolide D], the IC50 in test [2] (setting [7]) is 2.6 µg/mL; in test [2] (setting [8]) it was 4.9 µM; in test [3] (Homo sapiens, NCI/ADR-RES), > 5 µg/mL; in test [3] (setting [9]) it was > 9 µM; in test [5] (setting [10]), 2.4 µg/mL; in test [5] (setting [11]), 4.5 µM.
